Data from patent US9657305B2, “Synthesis of sialic acid in plants” (Medicago, Inc., priority 2006, dated 2017).

Key:
tobacco BY2 cells [1] = assay: In planta activity of Neu5Ac lyase: feeding transformed tobacco BY2 cells with Neu5Ac, GC of cytosolic monosaccharides; format: cell-based, Nicotiana tabacum; settings: BY2 cells fed 10 mM Neu5Ac, 48 h
Experimental: After 2 d, BY2 cells were washed with BY2 medium without Neu5Ac or ManNAc and harvested. The cells were heated at 70° C. for 15 min in 70% ethanol to inactivate enzymes and then ground in a potter homogenizer. The homogenate was washed two times with 70% ethanol at 70° C. The remaining pellet and the supernatant were considered as representatives of the cell walls and the cytosolic free monosaccharides respectively. Monosaccharides of the supernatant fraction were then analysed by gas chromatography
The formation of D-ManNAc was determined by analysing cytosolic monosaccharides by GC after a 48 h period at temperature ranging from 23° C. to 37° C.

[2] = Stability of the recombinant enzymes expressed in the plant cytosol; settings: tobacco BY2 cells, alfalfa plants or transient expression
From the text: The synthesis of Neu5Ac in presence of pyruvate and ManNAc was also observed.

[3] = Synthase activity of recombinant Neu5Ac lyase (formation of Neu5Ac from D-ManNAc and pyruvate, GC-EI MS); format: biochemical; settings: pH 7, […]° C.
Experimental: Soluble enzyme activities were assayed by incubating cell extracts with PEP 4 mM, NADH 4 mM, NaHCO3 20 mM and DTE 10 mM. Oxydation of NADH was measured by a diminution of absorbance at 340 nm after 10 min. […] Cells extracts were incubated 2 h at 37° C. in Solution B (100 mM Tris-HCl buffer, pH=7.4 and 10 mM MgCl2) containing proteinase inhibitors (pepstatine 1 μg·mL^−1, E64 1 μg·mL^1 and PMSF 1 mM) and Neu5Ac 40 mM. […] Cells extracts were incubated 2 h at 37° C. in Solution B (100 mM […], pH=7.4 and 10 mM MgCl2) containing proteinase inhibitors (pepstatine 1 μg·mL^−1, E64 1 μg·mL^1 and PMSF 1 mM) and ManNAc 20 mM and pyruvate 40 mM. Synthase activity of NeuB2 was assayed by measuring the formation of Neu5Ac after incubating transformants cells extracts with ManNAc and PEP. Cells extracts were incubated 2 h at 37° C. in Solution B (100 mM Tris-HCl buffer, pH=7.4 and 10 mM MgCl2) containing proteinase inhibitors (pepstatine 1 μg·mL^−1, E64 1 μg·mL^−1 and PMSF 1 mM) and ManNAc 10 mM and PEP 10 mM. […]
For the enzymatic assays, the reaction mixtures were first submitted to a purification step on C18 Seppack cartridges. […] The quantification of sugar was done by integration of peaks and determination of the corresponding molar values using response factors established with standard monosaccharides. […]

tobacco BY2 cells [4] = assay: Toxicity of Neu5Ac on tobacco BY2 cells (cell viability, propidium iodide and fluorescein diacetate); format: cell-based, Nicotiana tabacum; settings: 10 mM Neu5Ac, 48 h period

Row | Compound | increase in D-ManNAc content at 37° C. compared to 23° C. (tobacco BY2 cells [1]) [fold] | degradation of recombinant protein in the cytosol [2] | ability to synthesise Neu5Ac [3] | toxicity of Neu5Ac on tobacco BY2 cells (cell viability) (tobacco BY2 cells [4])
1 | Neu5Ac lyase: Neu5Ac lyase from Escherichia coli K1 (accession number D00067) expressed in tobacco BY2 cells | 25 | No degradation | able to synthesise Neu5Ac | 
2 | CC(=O)N[C@H]1[C@H]([C@H](O)[C@H](O)CO)OC(O)(C(=O)O)C[C@@H]1O (stereo partly shown) [Neu5Ac, N-acetyl neuraminic acid] |  |  |  | no toxic effects were observed
